Reference: patent US20200017823A1, “HYDROGEL COMPOSITIONS FOR USE IN NEURAL CELL EXPANSION AND DIFFERENTIATION” (Wisconsin Alumni Research Foundation, priority 2018, published 2020)
Read-outs that look alike come from different tables or passages of the source.

Assays:
iCell Neurons [1] = test: High-content imaging with skeleton network analysis: neurite branches versus cell viability
Method: All data points are mean±SEM. FIG. 14A: Dexamethasone. FIG. 14B: Colchicine.
Commercially available human iPSC-derived neurons (iCell Neurons) and their supporting media were purchased from Cellular Dynamics International (CDI, Madison, Wis.). Previously characterized iCell Neurons represent a mixture of post-mitotic GABAergic and glutamatergic neurons with >95% purity. The cells were received, frozen, thawed, and plated following a protocol recommended by CDI. Briefly, cells were plated on poly-L-lysine pre-coated 384 well plates (Greiner Bio-One) with PEG-NB hydrogels, 3.3 μg/ml laminin, or 60-120 μg/ml […]®.

iCell Neurons [2] = test: Synthetic hydrogel-based network formation/inhibition assay (total network area); assay type: cell-based, human; settings: PLL/Laminin and MATRIGEL screening systems
Text: Total network area was quantified by thresholding neurite processes and cell bodies stained with immunofluorescent tags for βIII-tubulin and MAP2. The resulting data was compared using the Z′ statistic to assess the accuracy of the synthetic hydrogel, PLL/Laminin, and MATRIGEL® screening systems in distinguishing neuronal networks disrupted by the known microtubule inhibitor Colchicine from non-inhibited networks.

Compound	cell viability (iCell Neurons [1])	neurite branches / neurite growth (iCell Neurons [1])	neuronal network (total network area, βIII-tubulin and MAP2 stain) (iCell Neurons [2])	neurite branches / neurite growth (iCell Neurons [1]; synthetic substrate, treated after 120-hour growth, exposed 120 hours, media replenished daily, compared to cell viability)
NC(=O)N1c2ccccc2C=Cc2ccccc21 [Carbamazepine]	reduced viability	apparent inhibition		
COc1cc2c(c(OC)c1OC)-c1ccc(OC)c(=O)cc1[C@@H](NC(C)=O)CC2 [Colchicine]			disrupted	significant reductions
C[C@@H]1C[C@H]2[C@@H]3CCC4=CC(=O)C=C[C@]4(C)[C@@]3(F)[C@@H](O)C[C@]2(C)[C@@]1(O)C(=O)CO [Dexamethasone]		significant reductions		
